Laboratory results from doi:10.1101/2024.06.03.597093v3 (biorxiv, 2024).
Where two headings read alike, the source gives them in different places.

Key:
β2AR-NlucC (β2AR) [1] = target: T1, β2AR-NlucC (β2AR) (Homo sapiens, UniProt P07550); assay: cell-based; conditions: HEK-293T, read-out: Mini-G Protein Recruitment / Emax (%) ± SEM
β1AR-NlucC (CRISPR) = β1AR-NlucC (CRISPR) (Homo sapiens, UniProt P08588); conditions: CRISPR receptor; relative to adrenaline; agonist
β2AR-NlucC (β2AR) [2] = target: T1, β2AR-NlucC (β2AR); assay: cell-based; conditions: HEK-293T, read-out: CRISPR_mGs Emax
β2AR-NlucC (CRISPR) = β2AR-NlucC (CRISPR) (Homo sapiens, UniProt P07550); assay: cell-based; conditions: HEK-293T, read-out: CRISPR_receptor Emax
Sequence of β2AR-NlucC (CRISPR) (P07550 whole entry): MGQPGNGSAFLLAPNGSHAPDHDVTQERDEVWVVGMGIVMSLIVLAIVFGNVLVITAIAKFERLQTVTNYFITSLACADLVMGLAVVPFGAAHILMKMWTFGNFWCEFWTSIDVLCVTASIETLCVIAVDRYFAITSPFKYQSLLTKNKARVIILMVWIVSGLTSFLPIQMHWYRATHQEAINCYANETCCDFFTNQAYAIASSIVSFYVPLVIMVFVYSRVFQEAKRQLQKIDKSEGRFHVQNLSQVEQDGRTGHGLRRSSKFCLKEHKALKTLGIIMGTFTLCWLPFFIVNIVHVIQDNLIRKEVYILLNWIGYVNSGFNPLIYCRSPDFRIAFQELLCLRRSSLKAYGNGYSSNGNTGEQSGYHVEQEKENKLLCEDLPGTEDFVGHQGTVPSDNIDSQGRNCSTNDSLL

T1 sequence (P07550 whole entry): as above
Sequence of β1AR-NlucC (CRISPR) (P08588 whole entry): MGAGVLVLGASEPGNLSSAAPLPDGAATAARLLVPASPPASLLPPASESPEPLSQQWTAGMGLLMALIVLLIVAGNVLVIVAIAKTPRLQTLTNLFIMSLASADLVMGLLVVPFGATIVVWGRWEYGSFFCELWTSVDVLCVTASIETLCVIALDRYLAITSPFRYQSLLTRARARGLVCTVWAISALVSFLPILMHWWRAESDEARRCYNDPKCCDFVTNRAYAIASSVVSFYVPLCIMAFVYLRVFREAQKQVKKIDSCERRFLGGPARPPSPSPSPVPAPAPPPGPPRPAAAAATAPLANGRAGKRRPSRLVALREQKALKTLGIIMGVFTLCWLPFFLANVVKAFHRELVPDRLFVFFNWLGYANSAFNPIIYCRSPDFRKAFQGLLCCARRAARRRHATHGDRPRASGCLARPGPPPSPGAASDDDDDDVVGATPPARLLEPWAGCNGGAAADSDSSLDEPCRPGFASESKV

NC[C@H](O)c1ccc(O)c(O)c1 [noradrenaline]
Emax (β2AR-NlucC (β2AR) [1]): 85 ± 2%
CRISPR_receptor Emax (β1AR-NlucC (CRISPR)): 109 ± 7%
Emax (β2AR-NlucC (β2AR) [2]): 51 ± 4%
Emax (β2AR-NlucC (CRISPR)): 61 ± 7%
